IC50 and inhibition data for 1 molecule are collected here from US6235707A, “Anticoagulant peptidyl-arginine aldehyde derivatives” (Gyogyszerkutato Intezet Kft., priority 1996, dated 2001).

Each structure is given as a SMILES string. Like-named read-outs stand apart in the source and are kept apart here.

Assay [1] has as its target T1, isolated human fXa (Homo sapiens, UniProt P00742).
T1 construct: The isolated active factor (e.g. thrombin, fXa) and its chromogen or fluorogen peptide-amide substrate are reacted; purchased SIGMA
Nature of the assay: fXa inhibition in solution, amidolytic method on Bz-Ile-Glu-Gly-Arg-pNA chromogen substrate (Method M6). The conditions noted are these: Table 3; isolated human fXa, Bz-Ile-Glu-Gly-Arg-pNA; read-out: B: fXa inhibiting IC50. In kind it is biochemical. As for the experimental part: Anticoagulant activity (i.e. inhibition of the proteolytic reactions in the process) is measured by anticoagulant tests, e.g. in the thrombin time (TT), activated partial thromboplastin time (APTT) and prothrombin time (PT) tests [E. J. W. Bovie et al., Mayo Clinic Laboratory Manual of Haemostasis; W. B. Saunders Co., Philadelphia (1971)]. Plasma, inhibited in spontaneous coagulation, e.g. citrate-plasma, is made to coagulate and the required coagulation time is measured. Upon the action of anticoagulants the coagulation time is prolonged proportionally to the inhibition of the reaction(s) in the process. The anticoagulant effect can be characterised by the substance concentration required to prolong the coagulation time twofold compared to the control (IC50). The effect of anticoagulants on individual coagulant proteases is measured by the amidolytic method [R. Lottenberg et al., Methods in Enzymol. 80, 341 (1981); G. Cleason, Blood Coagulation and Fibrinolysis 5, 411 (1994)]. The isolated active factor (e.g. thrombin, fXa) and its chromogen or fluorogen peptide-amide substrate are reacted in the presence or absence of the inhibitor, resp. The enzyme inhibiting action is characterised by the inhibitory constant (IC50) measured during amidolysis.
The in vitro anticoagulant effects of the compounds of general formula (I) was measured by the prothrombin time (PT), activated partial thromboplastin time (APTT) and thrombin time (TT) tests [D. Bagdy et al., Thromb. Haemost. 67, 325 (1992)]. The fxa-inhibiting effect of the compounds was also determined using the Bz-Ile-Glu-Gly-Arg-pNA chromogen substrate (see method M6).
Determination of Factor Xa Inhibition in Solution on a 96-well Microtitre Plate
a) By means of phosphate buffer (0.1M sodium phosphate and 0.05M sodium chloride, pH=7.4) 1.3 E/ml solution is prepared from human factor Xa (SIGMA), and 0.1-1.0-10 and 100 μg/ml solutions from the peptide inhibitors. The Bz-Ile-Glu-Gly-Arg-pNA substrate is used in distilled water solution ([…]).
b) From the control and the peptide inhibitor solutions (3 parallel samples of each concentration) 30-30 μl aliquots are placed into the wells. 30 μl of factor Xa, 90 μl of buffer and 150 μl of substrate are added to the peptide solution and the extinction is determined after 10 min. at 405 nm. Thereafter the steps are the same as in M2/c.

The target in assay [2] is T2, clot-bound fXa (Homo sapiens, UniProt P00742).
T2 construct: from tissue; host or cells: clot of recalcified human platelet-rich plasma
Description: inhibition of plasma clot-bound factor Xa (Methods M1, M2). In kind it is biochemical. Conditions: text b187, well below. The protocol: Plasma-clot was obtained by recalcificating platelet-rich human plasma, and fibrin gel by clotting human fibrinogen with human thrombin. For the activity measures of fXa and thrombin Z-D-Arg-Gly-Arg-pNA or Tos-Gly-Pro-Arg-pNA substrates were used in agreement with Methods M1-M3.
Preparation of Clots from Human Plasma
a) Platelet-rich plasma is prepared by centrifuging a 9:1 mixture of human blood and 3.8% sodium citrate solution for 5 min. at 240×g.
b) 200 μl platelet-rich plasma and 80 μl 40 mM CaCl2 solution are allowed to stand at room temperature for 1 hour. The thus-formed clot is washed with 6×2 ml of 0.9% NaCl solution with gentle stirring to remove the residual enzymes (thrombin and factor Xa). The washing medium is assayed for thrombin-like activity as follows:
c) To 400 μl of washing medium 100 μl of 1 mM Tos-Gly-Pro-Arg-pNA substrate solution is added, the mixture is incubated for 30 min at 37° C., then the reaction is stopped with 100 μl of 50% acetic acid. From this mixture 150 μl aliquots are applied onto a 96-well microtitre plate and the extinction coefficients are measured at 405 nm (ELISA READER SLT Laborinstrument GmbH, Austria). […]
c) From each reaction vessel 150 μl is applied onto a 96 well microtitre plate and extinction coefficients are measured at 405 nm (ELISA READER SLT Laborinstrument GmbH, Austria). […]

Assay [3] has as its system thrombin-induced blood platelet aggregation. Description: ex vivo inhibition of thrombin-induced blood platelet aggregation (PAI) in rabbits after p.o. dosing. Also noted: species or system rabbit. The conditions noted are these: Oryctolagus cuniculus, Platelet, po, p.o. 5 mg/kg, read-out: PAI (%), percentual inhibition of platelet aggregation. As for the experimental part:
The anticoagulant and platelet aggregation inhibiting effect of the compounds of general formula (I) was studied in New Zealand white rabbits ex vivo according to D. Bagdy et al. [Thromb. Haemost. 67, 357 (1992)]. The compounds were dissolved in buffered isotonic saline solution and administered i.v. (0,04-5.0 mg/kg) or by infusion (0.25-5.0 mg/kg/h) or subcutaneously (0.5-6.0 mg/kg) or p.o. (2.5-20 mg/kg). The effect of the compounds was detectable already within 30 minutes following p.o. administration, peak values were attained after 60-180 minutes and the therapeutic level was maintained dose-dependently for 3→6 hours.
The in vivo effect of ethoxycarbonyl-3-cyclobutyl-D-alanyl-L-prolyl-L-arginine aldehyde (1) is presented in detail in Tables 6 and 7. The corresponding values of C1 are listed as controls. The compound was administered p.o. in doses of 5 mg/kg. The blood samples drawn from the caudal vein in every 30-60 minutes were analysed. The whole blood clotting time (WBCT) and the inhibition of thrombin-induced blood platelet aggregation (PAI) were determined. The activated partial thromboplastin time (APTT) and the thrombin time (TT) in the citrate plasma obtained from the blood sample were also measured. The APTT and TT values are compiled in Table 6 and the WBCT and PAI values in Table 7.

T2 sequence (P00742 235-488 limits assumed): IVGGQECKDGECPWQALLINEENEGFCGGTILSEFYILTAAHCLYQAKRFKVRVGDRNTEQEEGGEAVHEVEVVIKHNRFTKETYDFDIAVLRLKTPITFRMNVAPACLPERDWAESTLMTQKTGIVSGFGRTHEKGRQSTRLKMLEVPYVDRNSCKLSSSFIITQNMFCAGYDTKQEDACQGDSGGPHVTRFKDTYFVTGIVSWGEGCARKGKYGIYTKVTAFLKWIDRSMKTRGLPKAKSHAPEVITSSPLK
T2 sequence (P00742 41-179 partner limits assumed): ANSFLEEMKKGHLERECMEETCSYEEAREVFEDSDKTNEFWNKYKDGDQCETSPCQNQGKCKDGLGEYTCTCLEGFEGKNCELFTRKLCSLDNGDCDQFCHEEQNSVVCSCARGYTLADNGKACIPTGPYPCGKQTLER
T1 sequence (P00742 235-488 limits assumed): as the sequence (P00742 235-488 limits assumed) above
T1 sequence (P00742 41-179 partner limits assumed): as the sequence (P00742 41-179 partner limits assumed) above

Usually IC50 stands for the concentration at which inhibition is half-maximal. As a reminder, the inhibition is how much of the control response was suppressed. Turning to `CCOC(=O)N[C@H](CC1CCC1)C(=O)N1CCC[C@H]1C(=O)N[C@H](C=O)CCCNC(=N)N` [Example 1, Ethoxycarbonyl-3-cyclobutyl-D-alanyl-L-prolyl-L-arginine aldehyde], the IC50 was 0.04 µM in assay [1] and < 1 µM in assay [2]. Further, the inhibition at 5 mg/kg in assay [3] (0 h, 0 min) amounted to 1%; in assay [3] (0.5 h, 30 min), 71.3 ± 16.6%; in assay [3] (0.75 h, 45 min) it was 55.8 ± 17.4%; in assay [3] (1 h, 60 min), 63.8 ± 21.2%; in assay [3] (1.5 h, 90 min), 85.6 ± 10%; in assay [3] (2 h, 120 min) it was 73.6 ± 19.1%. For the same molecule, the inhibition at 5 mg/kg in assay [3] (3 h, 180 min) worked out at 81.8 ± 11.6%; in assay [3] (4 h, 240 min), 59.4 ± 19.1%; in assay [3] (5 h, 300 min) it was 75.8 ± 11.8%.
